# According to patent publication US20080255060A1, “Ester Linked Macrolides Useful For The Treatment of Microbial Infections” (priority 2004, published 2008):
# What was measured:
# Assay in all cases: MIC, standard microtiter broth serial dilution test
# Format in all cases: cell-based
# [1] = test system: E. faecalis ATCC 0004; conditions: Enterococcus faecalis, ATCC0004
# [2] = test system: S. pyogenes 0542; conditions: Streptococcus pyogenes
# [3] = test system: S. pneumoniae 0541; conditions: Streptococcus pneumoniae
# [4] = test system: erythromycin resistant strains of Streptococcus pyogenes
# [5] = test system: erythromycin resistant strains of Streptococcus pneumoniae
# [6] = test system: S. aureus Smith ATCC 0329; conditions: Staphylococcus aureus, ATCC0329
# [7] = test system: H. influenzae ATCC 0529; conditions: Haemophilus influenzae, ATCC0529
# [8] = test system: M. catarrhalis ATCC 0324; conditions: Moraxella catarrhalis, ATCC0324
Structure (SMILES),MIC [1] [µg/mL],MIC [2] [µg/mL],MIC [3] [µg/mL],MIC [4] [µg/mL],MIC [5] [µg/mL],MIC [6] [µg/mL],MIC [7] [µg/mL],MIC [8] [µg/mL]
"CC[C@H]1OC(=O)[C@H](C)[C@@H](O[C@H]2C[C@@](C)(OC)[C@@H](OC(=O)CCOCCOCCNc3cc4c(=O)c(C(=O)O)cn(C5CC5)c4cc3Cl)[C@H](C)O2)[C@H](C)[C@@H](O[C@@H]2O[C@H](C)C[C@H](N(C)C)[C@H]2O)[C@](C)(O)C[C@@H](C)/C(=N\OCOCCOC)[C@H](C)[C@@H](O)[C@]1(C)O [Example 6, 4″-O-(3-{2-[2-(3-Carboxy-7-chloro-1-cyclopropyl-4-oxo-1,4-dihydro-quinolin-6-ylamino)-ethoxy]-ethoxy}-propionyl)-roxythromycin]",≤ 1,≤ 1,≤ 1,≤ 0.25,≤ 0.25,≤ 1,,
"CC[C@H]1OC(=O)[C@H](C)[C@@H](O[C@H]2C[C@@](C)(OC)[C@@H](OC(=O)CCOCCOCCNc3cc4c(=O)c(C(=O)O)cn(C5CC5)c4cc3Cl)[C@H](C)O2)[C@H](C)[C@@H](O[C@@H]2O[C@H](C)C[C@H](N(C)C)[C@H]2O)[C@](C)(O)C[C@@H](C)CN(C)[C@H](C)[C@@H](O)[C@]1(C)O [Example 8, 4″-O-(3-{2-[2-(3-Carboxy-7-chloro-1-cyclopropyl-4-oxo-1,4-dihydro-quinolin-6-ylamino)-ethoxy]-ethoxy}-propionyl)-azithromycin]",≤ 1,≤ 1,≤ 1,≤ 0.25,≤ 0.25,≤ 1,≤ 2,≤ 2
"CC[C@H]1OC(=O)[C@H](C)[C@@H](O[C@H]2C[C@@](C)(OC)[C@@H](OC(=O)CCOCCOCCNc3ccc4c(c3)c(=O)c(C(=O)O)cn4C3CC3)[C@H](C)O2)[C@H](C)[C@@H](O[C@@H]2O[C@H](C)C[C@H](N(C)C)[C@H]2O)[C@](C)(O)C[C@@H](C)CN(C)[C@H](C)[C@@H](O)[C@]1(C)O [Example 11, 4″-O-(3-{2-[2-(3-Carboxy-1-cyclopropyl-4-oxo-1,4-dihydro-quinolin-6-ylamino)-ethoxy]-ethoxy}-propionyl)-azithromycin]",≤ 1,≤ 1,≤ 1,≤ 0.25,≤ 0.25,≤ 1,≤ 2,≤ 2
"CCO/N=C1\[C@H](C)C[C@@](C)(O)[C@H](O[C@@H]2O[C@H](C)C[C@H](N(C)C)[C@H]2O)[C@@H](C)[C@H](OC2C[C@@](C)(OC)[C@@H](OC(=O)CCOCCOCCNc3cc4c(=O)c(C(=O)O)cn(C5CC5)c4cc3Cl)[C@H](C)O2)[C@@H](C)C(=O)O[C@H](CC)[C@@](C)(O)[C@H](O)[C@H]1C (stereo partly drawn) [Example 19, 4″-O-(3-{2-[2-(3-Carboxy-7-chloro-1-cyclopropyl-4-oxo-1,4-dihydro-quinolin-6-ylamino)-ethoxy]-ethoxy}-propionyl)-9(E)-ethoxyimino-erythromycin A]",≤ 1,≤ 1,≤ 1,≤ 0.25,≤ 0.25,≤ 1,≤ 2,≤ 2
"CC[C@H]1OC(=O)[C@H](C)[C@@H](O[C@H]2C[C@@](C)(OC)[C@@H](OC(=O)CCOCCOCCNc3ccc4c(c3)c(=O)c(C(=O)O)cn4CC)[C@H](C)O2)[C@H](C)[C@@H](O[C@@H]2O[C@H](C)C[C@H](N(C)C)[C@H]2O)[C@](C)(O)C[C@@H](C)CN(C)[C@H](C)[C@@H](O)[C@]1(C)O [Example 30, 4″-O-(3-{2-[2-(3-Carboxy-1-ethyl-4-oxo-1,4-dihydro-quinoline-6-ylamino)-ethoxy]-ethoxy}-propionyl)-azithromycin]",≤ 1,≤ 1,≤ 1,≤ 0.25,≤ 0.25,≤ 1,≤ 2,≤ 2
"CC[C@H]1OC(=O)[C@H](C)[C@@H](O[C@H]2C[C@@](C)(OC)[C@@H](OC(=O)CCOCCOCCNc3cc4c(=O)c(C(=O)O)cn(C(C)C)c4cc3Cl)[C@H](C)O2)[C@H](C)[C@@H](O[C@@H]2O[C@H](C)C[C@H](N(C)C)[C@H]2O)[C@](C)(O)C[C@@H](C)CN(C)[C@H](C)[C@@H](O)[C@]1(C)O [Example 31, 4″-O-(3-{2-[2-(3-carboxy-7-chloro-1-isopropyl-4-oxo-1,4-dihydro-quinoline-6-ylamino)-ethoxy]-ethoxy}-propionyl)-azithromycin]",≤ 1,≤ 1,≤ 1,≤ 0.25,≤ 0.25,≤ 1,≤ 2,≤ 2
"CC[C@H]1OC(=O)[C@H](C)[C@@H](OC2C[C@@](C)(OC)[C@@H](OC(=O)CCOCCOCCNc3cc4c5c(c3)c(=O)c(C(=O)O)cn5CCC4)[C@H](C)O2)[C@H](C)[C@@H](O[C@@H]2O[C@H](C)C[C@H](N(C)C)[C@H]2O)[C@](C)(O)C[C@@H](C)CN(C)[C@H](C)[C@@H](O)[C@]1(C)O (stereo partly drawn) [Example 32, 4″-O-(3-{2-[2-(6-Carboxy-7-oxo-2,3-dihydro-1H,7H-pyrido[3,2,1-ij]quinolin-9-ylamino)-ethoxy]-ethoxy}-propionyl)-azithromycin]",≤ 1,≤ 1,≤ 1,≤ 0.25,≤ 0.25,≤ 1,≤ 2,≤ 2
"CC[C@H]1OC(=O)[C@H](C)[C@@H](O[C@H]2C[C@@](C)(OC)[C@@H](OC(=O)CCOCCOCCNc3cc4c5c(c3)c(=O)c(C(=O)O)cn5CCC4)[C@H](C)O2)[C@H](C)[C@@H](O[C@@H]2O[C@H](C)C[C@H](N(C)C)[C@H]2O)[C@](C)(OC)C[C@@H](C)C(=O)[C@H](C)[C@@H](O)[C@]1(C)O [Example 33, 4″-O-(3-{2-[2-(6-Carboxy-7-oxo-2,3-dihydro-1H,7H-pyrido[3,2,1-ij]quinolin-9-ylamino)-ethoxy]-ethoxy}-propionyl)-6-O-methyl-erythromycin A]",≤ 1,≤ 1,≤ 1,≤ 0.25,≤ 0.25,≤ 1,≤ 2,≤ 2
"CC[C@H]1OC(=O)[C@H](C)[C@@H](OC2C[C@@](C)(OC)[C@@H](OC(=O)CCNCCOCCCc3ccc4c(c3)c(=O)c(C(=O)O)cn4CC)[C@H](C)O2)[C@H](C)[C@@H](OC2O[C@H](C)C[C@H](N(C)C)[C@H]2O)[C@](C)(OC)C[C@@H](C)C(=O)[C@H](C)[C@@H](O)[C@]1(C)O (stereo partly drawn) [Example 37, 4″-O-(3-{2-[3-(3-Carboxy-1-ethyl-4-oxo-1,4-dihydro-quinolin-6-yl)-propoxy]-ethylamino}-propionyl)-6-O-methyl-erythromycin A]",≤ 1,≤ 1,≤ 1,≤ 0.25,≤ 0.25,≤ 1,≤ 2,≤ 2
"CC[C@H]1OC(=O)[C@H](C)[C@@H](O[C@H]2C[C@@](C)(OC)[C@@H](OC(=O)CCOCCOCCCc3ccc4c(c3)c(=O)c(C(=O)O)cn4CC)[C@H](C)O2)[C@H](C)[C@@H](OC2O[C@H](C)C[C@H](N(C)C)[C@H]2O)[C@](C)(O)C[C@@H](C)CN(C)[C@H](C)[C@@H](O)[C@]1(C)O (stereo partly drawn) [Example 49, 4″-O-(3-{2-[3-(3-carboxy-1-ethyl-4-oxo-1,4-dihydro-quinolin-6-yl)-propoxy]-ethoxy}-propionyl)-azithromycin]",≤ 1,≤ 1,≤ 1,≤ 0.25,≤ 0.25,≤ 1,≤ 2,≤ 2
"CCO/N=C1\[C@H](C)C[C@@](C)(O)[C@H](OC2O[C@H](C)C[C@H](N(C)C)[C@H]2O)[C@@H](C)[C@H](OC2C[C@@](C)(OC)[C@@H](OC(=O)CCOCCOCCCc3ccc4c(c3)c(=O)c(C(=O)O)cn4CC)[C@H](C)O2)[C@@H](C)C(=O)O[C@H](CC)[C@@](C)(O)[C@H](O)[C@H]1C (stereo partly drawn) [Example 52, 9-Ethyloximino-4″-O-(3-{2-[3-(3-carboxy-1-ethyl-4-oxo-1,4-dihydro-quinolin-6-yl)-propoxy]-ethoxy}-propionyl)-erythromycin A]",,,,≤ 0.25,≤ 0.25,,,
"CC[C@H]1OC(=O)[C@H](C)[C@@H](O[C@H]2C[C@@](C)(OC)[C@@H](OC(=O)CCOCCOCCOc3cc4c(=O)c(C(=O)O)cn(C5CC5)c4cc3Cl)[C@H](C)O2)[C@H](C)[C@@H](O[C@@H]2O[C@H](C)C[C@H](N(C)C)[C@H]2O)[C@](C)(O)C[C@@H](C)CN(C)[C@H](C)[C@@H](O)[C@]1(C)O [Example 55, 4″-O-(3-{2-[2-(3-Carboxy-7-chloro-1-cyclopropyl-4-oxo-1,4-dihydro-quinolin-6-yloxy)-ethoxy]-ethoxy}-propionyl)-azithromycin]",≤ 1,≤ 1,≤ 1,≤ 0.25,≤ 0.25,≤ 1,≤ 2,≤ 2
"CC[C@H]1OC(=O)[C@H](C)[C@@H](O[C@H]2C[C@@](C)(OC)[C@@H](OC(=O)CCNCCOCCOCCNc3cc4c(=O)c(C(=O)O)cn(C5CC5)c4cc3Cl)[C@H](C)O2)[C@H](C)[C@@H](O[C@@H]2O[C@H](C)C[C@H](N(C)C)[C@H]2O)[C@](C)(O)C[C@@H](C)CN(C)[C@H](C)[C@@H](O)[C@]1(C)O [Example 65, 4″-O-[3-(2-{2-[2-(3-Carboxy-7-chloro-1-cyclopropyl-4-oxo-1,4-dihydro-quinolin-6-ylamino)-ethoxy]-ethoxy}-ethylamino)-propionyl]-azithromycin]",≤ 1,≤ 1,≤ 1,≤ 0.25,≤ 0.25,≤ 1,≤ 2,≤ 2
